These results are taken from patent US20060142312A1, “C6-aryl and heteroaryl substituted pyrido[2,3-D] pyrimidin-7-ones” (PFIZER INC, priority 2004, published 2006).

One data set has as its system neointima formation. As to conditions: in rats; cited from earlier work.

Counter-ions that a name gives are not always drawn.

As to `COc1ccc(CNc2nc(N(CCO)CCO)nc3c2ncn3C(C)C)cc1` [CVT-313], in the data set with neointima formation, the “inhibition of neointima formation” value was “greater than 80%”.

One may read the melting point as the temperature, or range, at which the solid turns liquid. As for `CN(C)CCCCNc1ncc2cc(Cc3ccccn3)c(=O)n(C3CCCC3)c2n1` [Example 89, 8-Cyclopentyl-2-(4-dimethylamino-butylamino)-6-pyridin-2-ylmethyl-8H-pyrido[2,3-d]pyrimidin-7-one], the melting point lay within 105 to 107 °C.

`O=C(O)CCNc1ncc2cc(Cc3ccccc3)c(=O)n(C3CCCC3)c2n1` [Example 52, 3-(6-Benzyl-8-cyclopentyl-7-oxo-7,8-dihydro-pyrido[2,3-d]pyrimidin-2-ylamino)-propionic acid]: the melting point lay within 164 to 170 °C.

`Cc1ccc(Cc2cc3cnc(NCCN4CCOCC4)nc3n(C3CCCC3)c2=O)cc1` [Example 75, 8-Cyclopentyl-6-(4-methyl-benzyl)-2-(2-morpholin-4-yl-ethylamino)-8H-pyrido[2,3-d]pyrimidin-7-one] returned a melting point of 88 to 91 °C.

In turn, `CC(C)c1ccc(Cc2cc3cnc(NC4CCC(N(C)C)CC4)nc3n(C3CCCC3)c2=O)cc1` (stereo not drawn) [Example 68, 8-Cyclopentyl-2-(4-dimethylamino-cyclohexylamino)-6-(4-isopropyl-benzyl)-8H-pyrido[2,3-d]pyrimidin-7-one] gave a melting point of 174 to 181 °C.

The compound `O=c1c(Cc2ccccc2)cc2cnc(NCc3ccccc3)nc2n1C1CCCC1` [Example 43, 6-Benzyl-2-benzylamino-8-cyclopentyl-8H-pyrido[2,3-d]pyrimidin-7-one] displayed a melting point of 186 to 188 °C.

Compound `CCCN1CCC(Nc2ncc3cc(Cc4ccc(CC)cc4)c(=O)n(C4CCCC4)c3n2)CC1` [Example 62, 8-Cyclopentyl-6-(4-ethyl-benzyl)-2-(1-propyl-piperidin-4-ylamino)-8H-pyrido[2,3-d]pyrimidin-one] gave a melting point of 151 to 153 °C.

Take `O=c1c(Cc2ccccn2)cc2cnc(NC3CCNCC3)nc2n1C1CCCC1` (as salt: TFA) [Example 26, 8-Cyclopentyl-2-(piperidin-4-ylamino)-6-pyridin-2-ylmethyl-8H-pyrido[2,3-d]pyrimidin-7-one]: the melting point was in the range of 138 to 140 °C.

`CCc1ccc(Cc2cc3cnc(NC4CCC(N(C)C)CC4)nc3n(C3CCCC3)c2=O)cc1` (stereo not drawn) [Example 67, 8-Cyclopentyl-2-(4-dimethylamino-cyclohexylamino)-6-(4-ethyl-benzyl)-8H-pyrido[2,3-d]pyrimidin-7-one]: the melting point lay within 175 to 181 °C.

The compound `Cc1c(Cc2ccccc2)c(=O)n(C2CCCC2)c2nc(Nc3ccc(N4CCNCC4)cc3)ncc12` [Example 29, 6-Benzyl-8-cyclopentyl-5-methyl-2-(4-piperazin-1-yl-phenylamino)-8H-pyrido[2,3-d]pyrimidin-7-one] came in with a melting point of 114 °C.

In turn, `CCCN1CCC(Nc2ncc3cc(Cc4ccccn4)c(=O)n(C4CCCC4)c3n2)CC1` [Example 88, 8-Cyclopentyl-2-(1-propyl-piperidin-4-ylamino)-6-pyridin-2-ylmethyl-8H-pyrido[2,3-d]pyrimidin-7-one] registered a melting point of 133 to 134 °C.

Compound `O=c1c(Cc2ccccc2)cc2cnc(NCCO)nc2n1C1CCCC1` [Example 42, 6-Benzyl-8-cyclopentyl-2-(2-hydroxy-ethylamino)-8H-pyrido[2,3-d]pyrimidin-7-one] displayed a melting point of 177 to 179 °C.

The compound `CN(C)c1ncc2cc(Cc3ccccc3)c(=O)n(C3CCCC3)c2n1` [Example 49, 6-Benzyl-8-cyclopentyl-2-dimethylamino-8H-pyrido[2,3-d]pyrimidin-7-one] yielded a melting point of 115 to 117 °C.

Turning to `O=c1c(Cc2ccccc2)cc2cnc(NC3CCNCC3)nc2n1C1CCCC1` [Example 46, 6-Benzyl-8-cyclopentyl-2-(piperidin-4-ylamino)-8H-pyrido[2,3-d]pyrimidin-7-one], the melting point was found to be 75 °C.

Consider `Cc1c(C(=O)c2ccccc2)c(=O)n(C2CCCC2)c2nc(Nc3ccc(N4CCNCC4)cc3)ncc12` [Example 32, 6-Benzoyl-8-cyclopentyl-5-methyl-2-(4-piperazin-1-yl-phenylamino)-8H-pyrido[2,3-d]pyrimidin-7-one], for which the melting point is 190 °C (dec.).
